{"source": "patent US7855166B2", "about": "“Sulfonylamino(thio)carbonyl compounds” (Bayer Cropscience GmbH, priority 2005, dated 2010)", "key": {"[1]": {"system": "weed plants such as Sinapis alba, Echinochloa crus-galli, Lolium multiflorum, Chrysanthemum segetum, Setaria viridis, Abutilon theophrasti, Amaranthus …", "test": "Post-emergence effect on weeds (greenhouse pot test, visual scoring)", "format": "in vivo", "conditions": "applied post-emergence (three-leaf stage) at a rate of 0.3 kg or less of active substance per hectare; scored after about 3 to 4 weeks in comparison to untreated controls"}, "[2]": {"system": "weed plants such as Sinapis alba, Chrysanthemum segetum, Avena sativa, Stellaria media, Echinochloa crus-galli, Lolium multiflorum, Setaria viridis, Abutilon …", "test": "Pre-emergence effect on weeds (greenhouse pot test, visual scoring)", "format": "in vivo", "conditions": "applied pre-emergence at a rate of 0.3 kg or less of active substance per hectare; scored after 3 to 4 weeks in comparison to untreated controls"}}, "data": [{"smiles": "CCCOc1nn(C(=O)NS(=O)(=O)c2cccc(Cl)c2I)c(=O)n1C1CC1", "note": "[Compound 1.834]", "values": [{"measurement": "herbicidal action against weed plants (effect scored visually)", "setting": "[1]", "value": "very good herbicidal action"}, {"measurement": "herbicidal action against weed plants (visual scoring of plant damage or emergence damage)", "setting": "[2]", "value": "very good herbidical action"}]}, {"smiles": "COc1nn(C(=O)NS(=O)(=O)c2cc(C(F)(F)F)ccc2I)c(=O)n1C", "note": "[Compound 1.835]", "values": [{"measurement": "herbicidal action against weed plants (effect scored visually)", "setting": "[1]", "value": "very good herbicidal action"}, {"measurement": "herbicidal action against weed plants (visual scoring of plant damage or emergence damage)", "setting": "[2]", "value": "very good herbidical action"}]}, {"smiles": "CCOc1nn(C(=O)NS(=O)(=O)c2cc(C(F)(F)F)ccc2I)c(=O)n1C", "note": "[Compound 1.836]", "values": [{"measurement": "herbicidal action against weed plants (effect scored visually)", "setting": "[1]", "value": "very good herbicidal action"}, {"measurement": "herbicidal action against weed plants (visual scoring of plant damage or emergence damage)", "setting": "[2]", "value": "very good herbidical action"}]}, {"smiles": "CCCOc1nn(C(=O)NS(=O)(=O)c2cc(C(F)(F)F)ccc2I)c(=O)n1C", "note": "[Compound 1.837]", "values": [{"measurement": "herbicidal action against weed plants (effect scored visually)", "setting": "[1]", "value": "very good herbicidal action"}, {"measurement": "herbicidal action against weed plants (visual scoring of plant damage or emergence damage)", "setting": "[2]", "value": "very good herbidical action"}]}, {"smiles": "CC(C)Oc1nn(C(=O)NS(=O)(=O)c2cc(C(F)(F)F)ccc2I)c(=O)n1C", "note": "[Compound 1.838]", "values": [{"measurement": "herbicidal action against weed plants (effect scored visually)", "setting": "[1]", "value": "very good herbicidal action"}, {"measurement": "herbicidal action against weed plants (visual scoring of plant damage or emergence damage)", "setting": "[2]", "value": "very good herbidical action"}]}, {"smiles": "COc1nn(C(=O)NS(=O)(=O)c2cc(C(F)(F)F)ccc2I)c(=O)n1C1CC1", "note": "[Compound 1.839]", "values": [{"measurement": "herbicidal action against weed plants (effect scored visually)", "setting": "[1]", "value": "very good herbicidal action"}, {"measurement": "herbicidal action against weed plants (visual scoring of plant damage or emergence damage)", "setting": "[2]", "value": "very good herbidical action"}]}, {"smiles": "CCOc1nn(C(=O)NS(=O)(=O)c2cc(C(F)(F)F)ccc2I)c(=O)n1C1CC1", "note": "[Compound 1.840]", "values": [{"measurement": "herbicidal action against weed plants (effect scored visually)", "setting": "[1]", "value": "very good herbicidal action"}, {"measurement": "herbicidal action against weed plants (visual scoring of plant damage or emergence damage)", "setting": "[2]", "value": "very good herbidical action"}]}, {"smiles": "CCCOc1nn(C(=O)NS(=O)(=O)c2cc(C(F)(F)F)ccc2I)c(=O)n1C1CC1", "note": "[Compound 1.841]", "values": [{"measurement": "herbicidal action against weed plants (effect scored visually)", "setting": "[1]", "value": "very good herbicidal action"}, {"measurement": "herbicidal action against weed plants (visual scoring of plant damage or emergence damage)", "setting": "[2]", "value": "very good herbidical action"}]}, {"smiles": "COc1nn(C(=O)NS(=O)(=O)c2c(Cl)cc(C(F)(F)F)cc2I)c(=O)n1C", "note": "[Compound 1.842]", "values": [{"measurement": "herbicidal action against weed plants (effect scored visually)", "setting": "[1]", "value": "very good herbicidal action"}, {"measurement": "herbicidal action against weed plants (visual scoring of plant damage or emergence damage)", "setting": "[2]", "value": "very good herbidical action"}]}, {"smiles": "CCOc1nn(C(=O)NS(=O)(=O)c2c(Cl)cc(C(F)(F)F)cc2I)c(=O)n1C", "note": "[Compound 1.843]", "values": [{"measurement": "herbicidal action against weed plants (effect scored visually)", "setting": "[1]", "value": "very good herbicidal action"}, {"measurement": "herbicidal action against weed plants (visual scoring of plant damage or emergence damage)", "setting": "[2]", "value": "very good herbidical action"}]}, {"smiles": "CCCOc1nn(C(=O)NS(=O)(=O)c2c(Cl)cc(C(F)(F)F)cc2I)c(=O)n1C", "note": "[Compound 1.844]", "values": [{"measurement": "herbicidal action against weed plants (effect scored visually)", "setting": "[1]", "value": "very good herbicidal action"}, {"measurement": "herbicidal action against weed plants (visual scoring of plant damage or emergence damage)", "setting": "[2]", "value": "very good herbidical action"}]}, {"smiles": "CC(C)Oc1nn(C(=O)NS(=O)(=O)c2c(Cl)cc(C(F)(F)F)cc2I)c(=O)n1C", "note": "[Compound 1.845]", "values": [{"measurement": "herbicidal action against weed plants (effect scored visually)", "setting": "[1]", "value": "very good herbicidal action"}, {"measurement": "herbicidal action against weed plants (visual scoring of plant damage or emergence damage)", "setting": "[2]", "value": "very good herbidical action"}]}, {"smiles": "COc1nn(C(=O)NS(=O)(=O)c2c(Cl)cc(C(F)(F)F)cc2I)c(=O)n1C1CC1", "note": "[Compound 1.846]", "values": [{"measurement": "herbicidal action against weed plants (effect scored visually)", "setting": "[1]", "value": "very good herbicidal action"}, {"measurement": "herbicidal action against weed plants (visual scoring of plant damage or emergence damage)", "setting": "[2]", "value": "very good herbidical action"}]}, {"smiles": "CCOc1nn(C(=O)NS(=O)(=O)c2c(Cl)cc(C(F)(F)F)cc2I)c(=O)n1C1CC1", "note": "[Compound 1.847]", "values": [{"measurement": "herbicidal action against weed plants (effect scored visually)", "setting": "[1]", "value": "very good herbicidal action"}, {"measurement": "herbicidal action against weed plants (visual scoring of plant damage or emergence damage)", "setting": "[2]", "value": "very good herbidical action"}]}]}
